Measured values published in PMC10855164, “Ligand-Based Design of Selective Peptidomimetic uPA and TMPRSS2 Inhibitors with Arg Bioisosteres” (International Journal of Molecular Sciences, 2024).

Experiments:
matriptase = target: T1, matriptase (Homo sapiens, UniProt Q9Y5Y6); experiment: fluorometric enzyme inhibition assay, matriptase (Boc-Leu-Arg-Arg-AMC); assay type: biochemical; conditions: for Ki: from IC50 by Cheng-Prusoff, n.a. = not active, <80% inhibition at 20 µM
T1 construct: catalytic domain of matriptase (uniport: Q9Y5Y6 aa 596–855); hexa-histidine (N); made in house; host or cells: Escherichia coli BL21 Gold (DE3)
T1 sequence (Q9Y5Y6 596-855): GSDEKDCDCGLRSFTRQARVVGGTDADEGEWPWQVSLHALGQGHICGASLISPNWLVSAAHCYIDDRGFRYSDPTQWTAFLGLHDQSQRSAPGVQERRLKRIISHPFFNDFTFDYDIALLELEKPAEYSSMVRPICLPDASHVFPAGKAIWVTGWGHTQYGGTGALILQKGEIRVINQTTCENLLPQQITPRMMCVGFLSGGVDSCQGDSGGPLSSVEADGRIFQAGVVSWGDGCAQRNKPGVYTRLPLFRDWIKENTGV
Procedure: (§1) The inhibitory activity of the synthesized compounds towards the respective main- and off-target proteases was measured via fluorometric and colorimetric assays. Thus, fluorogenic AMC- or colorimetric pNA-based substrates with a peptide sequence suitable for the tested protease were utilized (see Supplementary Figure S2). At first, the compounds were screened against […] proteases (uPA, TMPRSS2, matriptase, tPA, thrombin, factor Xa) at 20 µM, and a cut-off value of 80% inhibition at this concentration was set, for the differentiation between nonactive (n.a.) and active inhibitors. Due to the reversible inhibition mechanism of the ketobenzothiazole derivates, the IC50 values were determined with Graphpad Prism 9, and afterwards converted to the corresponding Ki values for an adequate comparison between the inhibitory activities of the compounds toward all tested proteases. The Ki values were calculated using the Cheng–Prusoff equation [43].
(§2) Fluorometric inhibition assays
The inhibitory activities of the compounds against the proteases were determined by enzyme inhibition assays with fluorogenic or colorimetry-based substrates. The fluorescence, caused by cleaved AMC from the fluorogenic substrates (uPA, matriptase, TMPRSS2, thrombin), was measured in white flat-bottom 96-well plates from Greiner Bio-One using a Tecan Infinite F200 Pro plate reader. The absorption, caused by cleaved pNA from colorimetric substrates (factor Xa and tPA), was measured in transparent flat-bottom 96-well plates from Greiner Bio-One using a Tecan Spark 10M plate reader. All measurements with the main-target proteases (uPA and TMRPSS2) were performed as triplicates and with the off-target proteases (matriptase, factor Xa, tPA, thrombin) as duplicates. The substrates and the compounds were prepared as stock solutions in DMSO. Each well contained a total volume of 200 µL, consisting of 185 µL buffer, 5 µL inhibitor in DMSO or pure DMSO as negative control, 5 µL substrate in DMSO and 5 µL enzyme solution in buffer. Dilution series were prepared for the determination of the inhibition constants. The fluorescence signal and absorbance were measured every 30 s for 10 min at 25 or 37 °C with the corresponding excitation/emission (λex = 380 nm / λem = 460 nm) and absorbance (λabs = 405 nm) wavelengths, depending on the targeted protease. IC50 values for the reversible inhibitors were calculated with Graphpad Prism 9 by fitting the remaining enzymatic activity to the four parameter IC50 equation with Y [%] as the residual enzyme activity , Ymax as the maximum value of the dose response curve at inhibitor concentrations [I] = 0 µM, Ymin as the minimum value at high inhibitor concentrations and s as the hill coefficient.[1] The fluorescence progress curves and sigmoidal dose-response curve for inhibition of uPa by compound 38 is shown exemplary in Figure S2. […]
(§3) Due to the dependence of the IC50 value on the substrate affinity and concentration, the Ki values were calculated with the Cheng-Prusoff equation, using the final substrate concentration [S] and the Michaelis-Menten constant KM, (2) for appropriate comparison of the inhibitory activities to the other enzymes and inhibitors.[1]
(§4) KM values were determined by fitting to the Michaelis-Menten equation using Graphpad Prism 9 with v [ΔF/min] as the substrate hydrolysis rate, vmax as the maximum slope of the dose-response curve, and the substrate [S] concentration.[1] The different substrates were serially diluted in DMSO. The measurement was done in analogy to the determination of the inhibitory activity, but with 5 µL pure DMSO instead of inhibitor solution. […]
The following buffers and substrates were used for the respective assays: uPA (50 mM Tris HCl pH = 7.9, 150 mM […]
TMPRSS2 (25 mM Tris HCl pH = 8.0, 150 mM NaCl, 5 mM CaCl2, 0.001% TX-100, 100 µM Boc-Gln-Ala-Arg-AMC (KM: 68.63 ± 6.64 µM), 25 °C, 3 nM TMPRSS2)[3]; matriptase (50 mM Tris HCl pH = 8.0, 150 mM NaCl, 5 mM CaCl2, […]

uPA = target: T2, uPA (Homo sapiens, UniProt P00749); experiment: fluorometric enzyme inhibition assay, uPA (Z-Gly-Gly-Arg-AMC); assay type: biochemical; conditions: for Ki: from IC50 by Cheng-Prusoff, n.a. = not active, <80% inhibition at 20 µM
T2 construct: purchased Sigma Aldrich
Procedure: as §1, §2
The inhibitory activities of the compounds against the proteases were determined by enzyme inhibition assays with fluorogenic or colorimetry-based substrates. The fluorescence, caused by cleaved AMC from the fluorogenic substrates (uPA, matriptase, TMPRSS2, thrombin), was measured in white flat-bottom 96-well plates from Greiner Bio-One using a Tecan Infinite F200 Pro plate reader. The absorption, caused by cleaved pNA from colorimetric substrates (factor Xa and tPA), was measured in transparent flat-bottom 96-well plates from Greiner Bio-One using a Tecan Spark 10M plate reader. All measurements with the main-target proteases (uPA and TMRPSS2) were performed as triplicates and with the off-target proteases (matriptase, factor Xa, tPA, thrombin) as duplicates. The substrates and the compounds were prepared as stock solutions in DMSO. Each well contained a total volume of 200 µL, consisting of 185 µL buffer, 5 µL inhibitor in DMSO or pure DMSO as negative control, 5 µL substrate in DMSO and 5 µL enzyme solution in buffer. Dilution series were prepared for the determination of the inhibition constants. The fluorescence signal and absorbance were measured every 30 s for 10 min at 25 or 37 °C with the corresponding excitation/emission (λex = 380 nm / λem = 460 nm) and absorbance (λabs = 405 nm) wavelengths, depending on the targeted protease. IC50 values for the reversible inhibitors were calculated with Graphpad Prism 9 by fitting the remaining enzymatic activity to the four parameter IC50 equation with Y [%] as the residual enzyme activity , Ymax as the maximum value of the dose response curve at inhibitor concentrations [I] = 0 µM, Ymin as the minimum value at high inhibitor concentrations and s as the hill coefficient.[1] The fluorescence progress curves and sigmoidal dose-response curve for inhibition of uPa by compound 38 is shown exemplary in Figure S2.
Figure S2: (left) Fluorescence progress curves for inhibition of uPa by cpd. 38. (right) Plot showing the respective IC50 value […]
as §3
as §4, with “solution. The fluorescence progress curves and Michaelis-Menten curve of the specific substrate of uPA is shown exemplarily” for “solution.”
Figure S3: (left) Fluorescence progress curves of cleavage of Z-Gly-Gly-Arg-AMC by uPA. (right) Michaelis-Menten curve […]

Selectivity index [SI] Matriptase (matriptase; quotient Ki matriptase / Ki TMPRSS2)	Selectivity index [SI] uPA (uPA; quotient Ki uPA / Ki TMPRSS2)	SMILES	Ki (matriptase) [nM]	Ki (uPA) [nM]	Selectivity index [SI] Matriptase (matriptase; quotient Ki matriptase / Ki uPA)
289	1052	CC(=O)N[C@@H](Cc1ccccc1)C(=O)N[C@@H](Cc1ccc(NC(=N)N)cc1)C(=O)c1nc2ccccc2s1 [Compound 33]	1440 ± 90	5260 ± 922	
		CC(=O)NCC(=O)NC(C(=O)NC(C)C(=O)NC(CC1CCC(NC(=N)N)CC1)C(=O)c1nc2ccccc2s1)C(C)O (stereo not shown) [Compound 38]	626 ± 74	39 ± 5	16
